Data taken from patent publication US8258293B2, “Tetrahydroquinoline derivatives” (MSD OSS B.V., priority 2001, dated 2012).

Each compound was assayed against T1, human FSH receptor (Homo sapiens, UniProt P23945) (assay: CHO-FSH in vitro bio activity (CRE-luciferase reporter)). Conditions: CHO cells stably transfected with human FSH receptor and CRE/luciferase reporter; half-maximal (50%) stimulation.
T1 construct: expressed in transfected cells; host or cells: Chinese Hamster Ovary (CHO) cells
T1 sequence (P23945 18-695): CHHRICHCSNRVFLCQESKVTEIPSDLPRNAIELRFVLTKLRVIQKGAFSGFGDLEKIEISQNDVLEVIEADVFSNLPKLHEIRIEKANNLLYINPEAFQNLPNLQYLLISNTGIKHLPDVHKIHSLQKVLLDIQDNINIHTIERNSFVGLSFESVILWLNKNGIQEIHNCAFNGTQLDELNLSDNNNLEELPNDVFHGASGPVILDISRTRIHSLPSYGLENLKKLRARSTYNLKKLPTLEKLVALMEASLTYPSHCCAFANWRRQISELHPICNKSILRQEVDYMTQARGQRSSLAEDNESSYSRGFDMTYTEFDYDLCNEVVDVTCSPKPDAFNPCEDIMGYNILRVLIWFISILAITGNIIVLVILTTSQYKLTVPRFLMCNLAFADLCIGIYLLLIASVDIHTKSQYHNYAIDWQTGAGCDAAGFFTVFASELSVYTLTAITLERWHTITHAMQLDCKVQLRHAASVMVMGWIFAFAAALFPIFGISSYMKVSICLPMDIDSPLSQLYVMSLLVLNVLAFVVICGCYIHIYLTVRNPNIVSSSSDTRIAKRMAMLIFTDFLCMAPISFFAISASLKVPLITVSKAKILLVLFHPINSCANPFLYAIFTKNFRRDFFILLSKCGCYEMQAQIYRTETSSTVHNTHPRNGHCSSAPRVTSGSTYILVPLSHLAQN
Format: cell-based
Protocol: FSH activity of compounds were tested in Chinese Hamster Ovary (CHO) cells stably transfected with the human FSH receptor and cotransfected with a cAMP responsive element (CRE)/promotor directing the expression of a firefly luciferase reporter gene. Binding of ligand to the Gs-coupled FSH receptor will result in an increase of cAMP, which in turn will induce an increased transactivation of the luciferase reporter construct. The luciferase signal was quantified using a luminescence counter. For test compounds, EC50 values (concentration of test compound causing half-maximal (50%) stimulation) were calculated. For that purpose the software program GraphPad PRISM, version 3.0 (GraphPad software Inc., San Diego) was used.

Row | EC50 [nM] | SMILES
1 | < 100 | CC(=O)N1c2ccc(NC(=O)c3ccc(Cl)cc3)cc2C(C)(c2ccccc2)CC1(C)C (stereo not shown) [Example 6, 1-Acetyl-6-(4-chlorobenzoyl)amino-4-phenyl-1,2,3,4-tetrahydro-2,2,4-trimethylquinoline]
2 | < 100 | CC(=O)N1c2ccc(NC(=O)c3ccccc3)cc2C(C)(c2ccccc2)CC1(C)C (stereo not shown) [Example 7, 1-Acetyl-6-benzoylamino-4-phenyl-1,2,3,4-tetrahydro-2,2,4-trimethylquinoline]
3 | < 100 | CC(=O)N1c2ccc(NC(=O)c3ccc(C(F)(F)F)cc3)cc2C(C)(c2ccccc2)CC1(C)C (stereo not shown) [Example 8, 1-Acetyl-4-phenyl-1,2,3,4-tetrahydro-6-(4-[trifluoromethyl]benzoyl)amino-2,2,4-trimethylquinoline]
4 | < 100 | CC(=O)N1c2ccc(NC(=O)c3ccc([N+](=O)[O-])cc3)cc2C(C)(c2ccccc2)CC1(C)C (stereo not shown) [Example 9, 1-Acetyl-6-(4-nitrobenzoyl)amino-4-phenyl-1,2,3,4-tetrahydro-2,2,4-trimethylquinoline]
5 | < 100 | CCCc1ccc(C(=O)Nc2ccc3c(c2)C(C)(c2ccccc2)CC(C)(C)N3C(C)=O)cc1 (stereo not shown) [Example 10, 1-Acetyl-4-phenyl-6-(4-n-propylbenzoyl)amino-1,2,3,4-tetrahydro-2,2,4-trimethylquinoline]
6 | < 100 | COc1ccc(Br)c(OC)c1C(=O)Nc1ccc2c(c1)C(C)(c1ccccc1)CC(C)(C)N2C(C)=O (stereo not shown) [Example 11, 1-Acetyl-6-(3-bromo-2,6-dimethoxybenzoyl)amino-4-phenyl-1,2,3,4-tetrahydro-2,2,4-trimethylquinoline]
7 | < 100 | CC(=O)N1c2ccc(NC(=O)c3ccc(-c4ccccc4)cc3)cc2C(C)(c2ccccc2)CC1(C)C (stereo not shown) [Example 12, 1-Acetyl-4-phenyl-6-(4-phenylbenzoyl)amino-1,2,3,4-tetrahydro-2,2,4-trimethylquinoline]
8 | < 100 | CC(=O)N1c2ccc(NC(=O)c3ccc(-c4ccc(Cl)cc4)cc3)cc2C(C)(c2ccccc2)CC1(C)C (stereo not shown) [Example 13, 1-Acetyl-6-(4-[4-chlorophenyl]benzoyl)amino-4-phenyl-1,2,3,4-tetrahydro-2,2,4-trimethylquinoline]
9 | < 100 | COc1ccc(-c2ccccc2)c(C(=O)Nc2ccc3c(c2)C(C)(c2ccccc2)CC(C)(C)N3C(C)=O)c1 (stereo not shown) [Example 15, 1-Acetyl-4-phenyl-6-(2-phenyl-5-methoxybenzoyl)amino-1,2,3,4-tetrahydro-2,2,4-trimethylquinoline]
10 | < 100 | CC(=O)N1c2ccc(NC(=O)c3cccc(C)c3-c3ccccc3)cc2C(C)(c2ccccc2)CC1(C)C (stereo not shown) [Example 16, 1-Acetyl-4-phenyl-6-(2-phenyl-3-methylbenzoyl)amino-1,2,3,4-tetrahydro-2,2,4-trimethylquinoline]
11 | < 100 | CC(=O)N1c2ccc(NC(=O)CCc3ccccc3)cc2C(C)(c2ccccc2)CC1(C)C (stereo not shown) [Example 21, 1-Acetyl-4-phenyl-6-(3-phenylpropionyl)amino-1,2,3,4-tetrahydro-2,2,4-trimethylquinoline]
12 | < 100 | CC(=O)N1c2ccc(NC(=O)c3ccco3)cc2C(C)(c2ccccc2)CC1(C)C (stereo not shown) [Example 22, 1-Acetyl-6-(2-furoyl)amino-4-phenyl-1,2,3,4-tetrahydro-2,2,4-trimethylquinoline]
13 | < 100 | CC(=O)N1c2ccc(NC(=O)CC(C)C)cc2C(C)(c2ccccc2)CC1(C)C (stereo not shown) [Example 23, 1-Acetyl-6-(isovaleryl)amino-4-phenyl-1,2,3,4-tetrahydro-2,2,4-trimethylquinoline]
14 | < 100 | CC(=O)N1c2ccc(NC(=O)CCC34CC5CC(CC(C5)C3)C4)cc2C(C)(c2ccccc2)CC1(C)C (stereo not shown) [Example 24, 1-Acetyl-6-(3-[adamantan-1-yl]propionyl)amino-4-phenyl-1,2,3,4-tetrahydro-2,2,4-trimethylquinoline]
15 | < 100 | CC(=O)N1c2ccc(NC(=O)CN3CCN(c4ccccc4)CC3)cc2C(C)(c2ccccc2)CC1(C)C (stereo not shown) [Example 30, 1-Acetyl-6-([4-{1-phenyl}-piperazinyl]methylcarbonyl)amino-4-phenyl-1,2,3,4-tetrahydro-2,2,4-trimethylquinoline]
16 | < 100 | COc1ccc(COC(=O)c2ccc3c(c2)C(C)(c2ccccc2)CC(C)(C)N3C(C)=O)cc1 (stereo not shown) [Example 36, 1-Acetyl-6-(4-methoxybenzyloxy)carbonyl-4-phenyl-1,2,3,4-tetrahydro-2,2,4-trimethylquinoline]
17 | < 100 | CC(=O)N1c2ccc(OC(=O)c3ccc(-c4ccccc4)cc3)cc2C(C)(c2ccccc2)CC1(C)C (stereo not shown) [Example 37, 1-Acetyl-6-(4-phenylbenzoyl)oxy-4-phenyl-1,2,3,4-tetrahydro-2,2,4-trimethylquinoline]
18 | < 100 | CC(=O)N1c2cc(C)c(NC(=O)c3ccc(-c4ccccc4)cc3)cc2C(C)(c2ccccc2)CC1(C)C (stereo not shown) [Example 45, 1-Acetyl-6-(4-phenylbenzoyl)amino-4-phenyl-1,2,3,4-tetrahydro-2,2,4,7-tetramethylquinoline]
19 | < 100 | COc1cc(NC(=O)c2ccc(-c3ccccc3)cc2)cc2c1N(C(C)=O)C(C)(C)CC2(C)c1ccccc1 (stereo not shown) [Example 46, 1-Acetyl-6-(4-phenylbenzoyl)amino-8-methoxy-4-phenyl-1,2,3,4-tetrahydro-2,2,4-trimethylquinoline]
20 | < 100 | CC(=O)N1c2ccc(NC(=O)c3cc(Br)cc(Br)c3)cc2C(C)(c2ccccc2)CC1(C)C (stereo not shown) [Example 50, 1-Acetyl-6-(3,5-dibromobenzoyl)amino-4-phenyl-1,2,3,4-tetrahydro-2,2,4-trimethylquinoline]
21 | < 100 | CNc1ccc(Br)cc1C(=O)Nc1ccc2c(c1)C(C)(c1ccccc1)CC(C)(C)N2C(C)=O (stereo not shown) [Example 51, 1-Acetyl-6-(5-bromo-2-methylaminobenzoyl)amino-4-phenyl-1,2,3,4-tetrahydro-2,2,4-trimethylquinoline]
22 | < 100 | COc1cc(C(=O)Nc2ccc3c(c2)C(C)(c2ccccc2)CC(C)(C)N3C(C)=O)cc(OC)c1OC (stereo not shown) [Example 52, 1-Acetyl-6-(3,4,5-trimethoxybenzoyl)amino-4-phenyl-1,2,3,4-tetrahydro-2,2,4-trimethylquinoline]
23 | < 100 | COc1c(Cl)cc(Cl)c(OC)c1C(=O)Nc1ccc2c(c1)C(C)(c1ccccc1)CC(C)(C)N2C(C)=O (stereo not shown) [Example 53, 1-Acetyl-6-(3,5-dichloro-2,6-dimethoxybenzoyl)amino-4-phenyl-1,2,3,4-tetrahydro-2,2,4-trimethylquinoline]
24 | < 100 | CC(=O)N1c2ccc(NC(=O)c3ccccc3OS(C)(=O)=O)cc2C(C)(c2ccccc2)CC1(C)C (stereo not shown) [Example 58, 1-Acetyl-6-(2-methylsulfonyloxybenzoyl)amino-4-phenyl-1,2,3,4-tetrahydro-2,2,4-trimethylquinoline]
25 | < 100 | CC(=O)N1c2ccc(NC(=O)c3ccccc3OC(=O)c3cc(C)on3)cc2C(C)(c2ccccc2)CC1(C)C (stereo not shown) [Example 61, 1-Acetyl-6-(2-[5-methylisoxazole-3-carbonyl]oxybenzoyl)amino-4-phenyl-1,2,3,4-tetrahydro-2,2,4-trimethylquinoline]
26 | < 100 | CC(=O)N1c2ccc(NC(=O)c3ccccc3OC(=O)N3CCOCC3)cc2C(C)(c2ccccc2)CC1(C)C (stereo not shown) [Example 63, 1-Acetyl-6-(2-[morpholino-4-carbonyl]oxybenzoyl)amino-4-phenyl-1,2,3,4-tetrahydro-2,2,4-trimethylquinoline]
27 | < 100 | CC(=O)N1c2ccc(NC(=O)c3ccccc3Nc3ccccc3)cc2C(C)(c2ccccc2)CC1(C)C (stereo not shown) [Example 64, 1-Acetyl-6-(2-phenylaminobenzoyl)amino-4-phenyl-1,2,3,4-tetrahydro-2,2,4-trimethylquinoline]

Row | SMILES | EC50 [nM]
28 | CC(=O)N1c2ccc(NC(=O)OC(C)(C)C)cc2C(C)(c2ccccc2)CC1(C)C (stereo not shown) [Example 1, 1-Acetyl-6-(tert-butoxycarbonyl)amino-4-phenyl-1,2,3,4-tetrahydro-2,2,4-trimethylquinoline] | < 100
